Source: patent publication US20220304964A1, “PARA-AMINOHIPPURIC ACID (PAH) AS A RENAL PROTECTIVE SUBSTANCE” (ITM Isotope Technologies Munich SE, priority 2019, published 2022)
Where two headings read alike, the source gives them in different places.

Assays:
[1] = tested on: rats; settings: Natochin et al. 1989; cited from earlier work
[2] = tested on: healthy Wistar rats; test: Kidneys uptake of [^177Lu-DOTA^o-Tyr3]-octreotide by quantitative small animal SPECT with co-infusion of kidney protection agent; type: in vivo; settings: vs 0.9% NaCl co-infusion
Procedure: Imaging acquisition was performed after 0.5 h, 1 h, 4 h, 8 h, 24 h p.i.
(§1) For statistical analysis Microsoft Excel 2010 and Graphpad Prism 6.05 were employed. Data are presented as median and [25% and 75% percentile] and mean and standard deviation (SD) or standard error of mean (SEM). For comparison, ordinary one way ANOVA and Tukey's multiple comparisons test, two-sample two-tailed t-test were employed. Significance was accepted with P<0.05.

[3] = tested on: male Wistar rats; test: Ex-vivo organ distribution of [^177Lu-DOTA^o-Tyr3]-octreotide after pre-/co-injection of NaCl, Arg-Lys or PAH; type: in vivo; settings: 5 min and 60 min p.i., N=5, with respect to NaCl infusions
Procedure: All animals were pre-injected 10 min before the radiotracer injection with 1.0 mL of NaCl, Arg-Lys or PAH.
The animals were injected and sacrificed after 5 min or 60 min. Organs and tissue of interest were harvested and measured for activity. […] The average injected activity was 4.49±0.38 MBq/kg body weight (5 min) and 159±13 MBq/kg body weight (5 min) for the SPECT and 4.19±0.57 MBq/kg body weight (60 min) or 139±8 MBq/kg body weight for the SPECT animals (60 min).
as §1
The results are graphically illustrated in FIG. 5.

[4] = tested on: healthy Wistar rats; test: SPECT/CT kidney and blood (heart) radioactivity of ^177Lu-labeled DOTA compounds with co-injection of PAH or saline; type: in vivo; settings: ^177Lu-DOTA-Affilin
Procedure: (§2) The tracer distribution of the radiolabeled test compounds were performed in two distinct cohorts of healthy Wistar rats with focus on the kidney uptake/clearance and blood levels. […] Each cohort comprises at least 3 rats for statistic matters.
Testing parameters were provided for each compound, RCP >95%.
The percentage of injected radioactivity present in the kidneys over time was determined according to the above protocol. The results are graphically illustrated in FIG. 6.
The percentage of injected radioactivity present in blood over time was determined according to the above protocol. The results are graphically illustrated in FIG. 7.

[5] = tested on: healthy Wistar rats; test: PET/CT kidney and blood radioactivity of ^68Ga-labeled HBED-CC-PSMA-11 with co-injection of PAH or saline; type: in vivo; settings: PAH 200 mg/mL vs 0.9% NaCl; 0.1, 0.5, 1, 2, 4 h; FIG. 8
Procedure: as §2
Mice were injected with diagnostic ^68Ga-labeled PSMA-11 conjugated with acyclic chelator HBED-CC, and co-injected with PAH (200 mg/mL) or saline (0.9% NaCl) as a control. The percentage of injected radioactivity present in kidney (upper lane) and blood (lower lane) over time was determined according to the above protocol. The results are graphically illustrated in FIG. 8.

[6] = tested on: AR42J tumor mouse model; test: Comparative biodistribution of ^177Lu-DOTATOC i.v. after i.p. PAH or saline; type: in vivo, CD1 nude mice; settings: FIG. 9
Procedure: Mice (3 animals per group) were sacrificed at 0.5 h, 1 h, 2 h, and 4 h, respectively. The organs were quickly rinsed in 0.9% NaCl and dried before being weighed and counted to eliminate possible contaminating blood. […] Data from organ/tissue counting are expressed as percentage of injected dose (% ID/g)).

[7] = tested on: mice; test: Comparative biodistribution of ^99mTc-Etarfolatide given with PAH or saline; type: in vivo; settings: PAH IP 10 min prior + tracer diluted in PAH vs saline; after 30 min; FIG. 10
Procedure: 30 mice (male and female) were randomly assigned to two groups.
Group A: The mice were injected with ^99mTc Etarfolatide diluted in PAH (2.04 μg Etarfolatide/mouse) after having received an IP injection of PAH 10 min prior to radiotracer injection. Five time-points were assessed: 5 min, 30 min, 1 h, 2 h, 4 h (3 mice per time-point).
Group B: The mice were injected with ^99mTc Etarfolatide diluted in saline (2.04 μg Etarfolatide/mouse) after having received an IP injection of saline 10 min prior to radiotracer injection. Five time-points were assessed: 5 min, 30 min, 1 h, 2 h, 4 h (3 mice per time-point).

[8] = tested on: Laboratory Rat (Rattus norwegicus), Lewis; test: SPECT biodistribution of ^177Lu-PSMA I&T with kidney protection agents (PAH, Probenecid, saline); type: in vivo; settings: for radioactivity in kidney cells (^177Lu-PSMA I&T): compared to the saline control (PAH also compared to probenecid), FIGS. 11 to 14
Excerpt: The protocol was executed in a way to test the radioactivity concentration of the kidneys in groups of animals injected with one TA but three different KP agents in three separate groups. Thus, the following matrix of experimental groups was formed.

[9] = low plasma concentrations (1.0 to 2.0 mg/100 mL); average; cited from earlier work
[10] = tested on: female mice; settings: cited from earlier work
[11] = Radiolabel stability of ^99mTc-Etarfolatide (HPLC, ITLC-SG); type: physicochemical; settings: 24 h post-preparation
Procedure: Radiolabeling efficiency and stability was determined using: (i) Instant thin layer chromatography-silica gel (ITLC-SG) with water (Rf of ^99mTc-Etarfolatide and free pertechnetate=0.9-1.0; Rf of colloid=0.0-0.1) and acetone (Rf of free pertechnetate=0.9-1.0; Rf of colloid and ^99mTc-Etarfolatide=0.0-0.1) as the mobile phases and (ii) RP-HPLC: Solvent A: 0.1% TFA in H2O. Solvent B: 0.1% TFA in AcCN; Gradient Elution, flow rate 1 mL/min.
On each day of experimentation, a new radiolabeling procedure was performed with approximately the same ^99mTc activity.
The volume of the radiolabeled folate was measured to be 1300 μL, while the activity was 734 MBq (Day of experimentation: March 4th). A sample corresponding to 300 MBq (i.e. 15 MBq×20 mice) was prepared. 531 μL were taken from the radiolabeled folate, which was diluted with either 1469 μL Saline or 1469 μL PAH (2000 μL 99mTc-etarfolatide, 100 μL/15 MBq per mouse). Before injection, the sample was filtered through a […] sterile filter. The injected 15 MBq/mouse corresponds to 2.04 μg Etarfolatide/mouse (injected quantity of Etarfolatide was kept stable throughout the experiment).

[12] = tested on: patients; settings: cited from earlier work
[13] = group B (PAH) compared to group A (NaCl)
[14] = at all time points (0.5-4 h), vs saline

SMILES: C[N+](C)(C)CCO.[Cl-] [Choline chloride]
- effect on cisplatin's nephrotoxic effects [1]: reduce cisplatin's nephrotoxic effects

SMILES: Nc1ccc(C(=O)NCC(=O)O)cc1 [PAH, para-aminohippuric acid]
- kidney uptake reduction of [^177Lu-DOTA^o-Tyr3]-octreotide ([2]; 0.5 h post injection): 50%
- kidney uptake reduction of [^177Lu-DOTA^o-Tyr3]-octreotide ([2]; after 8 h): 56%
- kidney uptake reduction of [^177Lu-DOTA^o-Tyr3]-octreotide ([2]; after 24 h): 50%
- ex-vivo uptake of [^177Lu-DOTA^o-Tyr3]-octreotide in the kidneys [3]: significantly reduced the uptake in the kidneys
- kidney uptake of Affilin ([4]; PAH 200 mg/mL vs 0.9% NaCl, versus the other compounds tested): less prominently reduced
- blood activity of Affilin (percentage of injected radioactivity in blood) ([4]; co-injected PAH 200 mg/mL vs 0.9% NaCl, FIG. 7): significant increase of blood activity
- kidney uptake of radiolabeled compounds (percentage of injected radioactivity in kidneys) ([4]; ^177Lu-DOTA-RGD, ^177Lu-DOTA-Sargastrin, ^177Lu-DOTA-JR11, PAH 200 mg/mL vs 0.9% NaCl, 0.5, 1, 4, 24 h, FIG. 6): significant effect in reduction of kidney uptake
- kidney uptake of ^68Ga-labeled HBED-CC conjugated PSMA-11 [5]: significant reduction of kidney uptake
- ^177Lu-DOTATOC uptake in kidneys ([6]; group B (PAH 20% i.p. 50 μL + ^177Lu-DOTATOC/PAH) vs group A (NaCl 0.9%), 0.5-4 h): significant decrease
- ^177Lu-DOTATOC level in blood [6, 13]: significantly increased
- ^177Lu-DOTATOC level in tumor [6, 13]: significantly increased
- renal uptake of ^99mTc-Etarfolatide [7]: decreased renal uptake
- renal cortex radioactivity (^177Lu-PSMA I&T) [8, 14]: reduced radioactivity
- renal medulla radioactivity (^177Lu-PSMA I&T) [8, 14]: reduced radioactivity
- radioactivity in kidney cells (^177Lu-PSMA I&T) [8]: marked reduction of radioactivity
- PAH cleared by the kidneys from the renal blood stream by a single circulation [9]: 90%
- intravenous LD 50 [10]: 7220 mg/kg
- effect on cisplatin's nephrotoxic effects [1]: reduce cisplatin's nephrotoxic effects

SMILES: CCCN(CCC)S(=O)(=O)c1ccc(C(=O)O)cc1 [Probenecid]
- radioactivity in kidney cells (^177Lu-PSMA I&T) [8]: no effect

SMILES: Nc1nc2ncc(CNc3ccc(C(=O)N[C@H](CCC(=O)NC[C@@H]4[NH][99Tc]56(=[O])[S]C[C@@H](C(=O)O)[N]5C(=O)[C@H](CC(=O)O)[N]6C4=O)C(=O)O)cc3)nc2c(=O)[nH]1 [^99mTc-Etarfolatide]
- Stability of radiolabel by HPLC [11]: no loss of radiolabel

SMILES: C=C(CC)C(=O)c1ccc(OCC(=O)O)c(Cl)c1Cl [ethacrynic acid]
- effect on cisplatin's nephrotoxic effects [1]: reduce cisplatin's nephrotoxic effects

SMILES: NS(=O)(=O)c1cc(C(=O)O)c(NCc2ccco2)cc1Cl [fursosemide]
- effect on cisplatin's nephrotoxic effects [1]: reduce cisplatin's nephrotoxic effects

SMILES: NCCCC[C@H](N)C(=O)O [lysine]
- Kidney uptake reduction of radiolabeled octreotide ([12]; 25 g of lysine, P<0.04): 17%+/−9%
- Kidney uptake reduction of radiolabeled octreotide ([12]; 50 g of lysine, P<0.04): 15%+/−13%
- serum potassium levels ([12]; 75 g of lysine (Lys75) or 25 g lysine plus 25 g arginine (LysArg)): rose significantly
- Kidney uptake reduction of radiolabeled octreotide ([12]; 75 g of lysine, P<0.001): 44%+/−11%
